Numbers after ± are expanded uncertainties.
Legend:
[1] = 298.15 K; 101 kPa; Liquid
[2] = mn = molality of the nth substance listed, in mol/kg; conditions: 298.15 K, 101 kPa, Liquid

**Q.** For `c1ccccc1` [benzene], which mass density [1] is on record?
**A.** 873.71 ± 0.78 kg/m3

**Q.** What about the speed of sound [1] of the same compound?
**A.** 1298.2 ± 2.8 m/s

**Q.** What does the source list for `c1ccccc1` [benzene] + CCCC[N+](CCCC)(CCCC)CCCC.[Br-]?
**A.** mass density ([2]; m2 = 0): 873.71 ± 0.78 kg/m3; speed of sound ([2]; m2 = 0): 1298.2 ± 2.8 m/s

**Q.** With `ClC(Cl)(Cl)Cl` [tetrachloromethane] + CCCC[N+](CCCC)(CCCC)CCCC.[Br-] as the compound, how does the mass density ([2]; m2 = 0) read?
**A.** 1584.35 ± 2.2 kg/m3

**Q.** And the speed of sound ([2]; m2 = 0)?
**A.** 921.7 ± 2.4 m/s

**Q.** What about the mass density ([2]; m2 = 0.0289) of the same compound?
**A.** 1578.53 ± 2.2 kg/m3

**Q.** What about the speed of sound ([2]; m2 = 0.0289) of the same compound?
**A.** 926.4 ± 2.4 m/s

**Q.** And the mass density ([2]; m2 = 0.0459)?
**A.** 1575.17 ± 2.2 kg/m3

**Q.** And the speed of sound ([2]; m2 = 0.0459)?
**A.** 929.4 ± 2.4 m/s

**Q.** And the mass density ([2]; m2 = 0.0609)?
**A.** 1572.21 ± 2.2 kg/m3

**Q.** What about the speed of sound ([2]; m2 = 0.0609) of the same compound?
**A.** 931.7 ± 2.4 m/s

**Q.** And the mass density ([2]; m2 = 0.0759)?
**A.** 1569.3 ± 2.2 kg/m3

**Q.** What about the speed of sound ([2]; m2 = 0.0759) of the same compound?
**A.** 933.7 ± 2.4 m/s

**Q.** And the mass density ([2]; m2 = 0.1041)?
**A.** 1563.88 ± 2.2 kg/m3

**Q.** And the speed of sound ([2]; m2 = 0.1041)?
**A.** 939.5 ± 2.4 m/s

**Q.** And the mass density ([2]; m2 = 0.3475)?
**A.** 1520.79 ± 2 kg/m3

**Q.** And the speed of sound ([2]; m2 = 0.3475)?
**A.** 982 ± 2.4 m/s

**Q.** What about the mass density ([2]; m2 = 0.5626) of the same compound?
**A.** 1488.36 ± 1.9 kg/m3

**Q.** And the speed of sound ([2]; m2 = 0.5626)?
**A.** 1017.5 ± 2.5 m/s

**Q.** What about the mass density ([2]; m2 = 0.8165) of the same compound?
**A.** 1456.84 ± 1.8 kg/m3

**Q.** What about the speed of sound ([2]; m2 = 0.8165) of the same compound?
**A.** 1057.6 ± 2.5 m/s

**Q.** What does the source list for `CCCC[N+](CCCC)(CCCC)CCCC.[Br-]` [tetrabutylammonium bromide] + c1ccccc1?
**A.** mass density ([2]; m1 = 0.0154): 874.64 ± 0.78 kg/m3; speed of sound ([2]; m1 = 0.0154): 1298.6 ± 2.8 m/s; mass density ([2]; m1 = 0.0485): 876.48 ± 0.78 kg/m3; speed of sound ([2]; m1 = 0.0485): 1299.4 ± 2.8 m/s; mass density ([2]; m1 = 0.0662): 877.4 ± 0.77 kg/m3; speed of sound ([2]; m1 = 0.0662): 1300.6 ± 2.8 m/s; mass density ([2]; m1 = 0.0827): 878.36 ± 0.77 kg/m3; speed of sound ([2]; m1 = 0.0827): 1300.8 ± 2.8 m/s; mass density ([2]; m1 = 0.1724): 883.19 ± 0.76 kg/m3; speed of sound ([2]; m1 = 0.1724): 1301.4 ± 2.8 m/s; mass density ([2]; m1 = 0.3622): 893.1 ± 0.74 kg/m3; speed of sound ([2]; m1 = 0.3622): 1310.1 ± 2.8 m/s; mass density ([2]; m1 = 0.5773): 903.19 ± 0.72 kg/m3; speed of sound ([2]; m1 = 0.5773): 1316.4 ± 2.8 m/s; mass density ([2]; m1 = 0.8062): 913.08 ± 0.7 kg/m3; speed of sound ([2]; m1 = 0.8062): 1324.6 ± 2.9 m/s

**Q.** Which mass density [1] does the source give for `ClC(Cl)(Cl)Cl` [tetrachloromethane] here?
**A.** 1584.35 ± 2.2 kg/m3

**Q.** What about the speed of sound [1] of the same compound?
**A.** 921.7 ± 2.4 m/s
